{
  "source": "patent US11214772B2",
  "about": "“Production method for retinal tissue” (SUMITOMO DAINIPPON PHARMA CO., LTD., priority 2014, dated 2022)",
  "key": {"[1]": {"tested_on": "human iPS cells (1231A3 strain)", "assay": "Bright field observation of cell aggregates in suspension culture (aggregate shape, neuroepithelium / neural tissue formation)", "type": "cell-based", "protocol": "The above subconfluent human iPS cells were treated with a cell dispersion solution by using TrypLE Select (Life Technologies), and further dispersed into single cells by a pipetting operation. Thereafter, the above human iPS cells dispersed into single cells were suspended in 100 μl of a serum-free medium in a non-cell-adhesive 96 well culture plate (PrimeSurface 96V-bottom plate, SUMITOMO BAKELITE) at 1.2×10^4 cells per well, and subjected to suspension culturing at 37° C., 5% CO2. As a serum-free medium (gfCDM+KSR) therefor, a 1:1 mixture of F-12 medium and IMDM medium supplemented with 10% KSR, 450 μM 1-monothioglycerol, 1× Chemically defined lipid concentrate was used. At the start of the suspension culturing (on day 0 after the start of suspension culturing, step 2 start), Y27632 (final concentration 20 μM) was added to the above serum-free medium. By day 2 after the start of suspension culturing, cell aggregates were formed (step 2 completed, and step 3 start). On day 3 after the start of suspension culturing, a serum-free medium (50 μl) free of Y27632 was added.\nOn day 6 after the start of suspension culturing, a half amount of the medium was changed with a medium free of Y27632 and containing or not containing human recombinant BMP4 (manufactured by R&D) to adjust the final concentration of exogenous human recombinant BMP4 to 1.5 nM (55 ng/ml, FIG. 1B) or to give a medium free of exogenous human recombinant BMP4 (FIG. 1A). As the half-medium exchange operation, a half volume of the medium in the culture vessel, namely 75 μl, was discarded, the above fresh serum-free medium (75 μl) was added to adjust the total medium amount to 150 μl. Thereafter, a half amount of the medium was changed with the above serum-free medium free of Y27632 and human recombinant BMP4 once per 2-4 days. […]\nThe thus-prepared subconfluent human iPS cells were treated with a cell dispersion solution by using TrypLE Select (Life Technologies), and further dispersed into single cells by a pipetting operation. Thereafter, the above human iPS cells dispersed into single cells were suspended in 100 μl of a serum-free medium in a non-cell-adhesive 96 well culture plate (PrimeSurface 96V-bottom plate, SUMITOMO BAKELITE) at 1.2×10^4 cells per well, and subjected to suspension culturing at 37° C., 5% CO2. As a serum-free medium (gfCDM+KSR) therefor, a 1:1 mixture of F-12 medium and IMDM medium supplemented with 10% KSR, 450 μM 1-monothioglycerol, 1× Chemically defined lipid concentrate was used. […] By day 2 after the start of suspension culturing, cell aggregates were formed (step 2 completed, step 3 start). On day 3 after the start of suspension culturing, a serum-free medium (50 μl) free of Y27632 and SAG was added. On day 6 after the start of suspension culturing, a half amount of the medium was changed with a medium free of Y27632 and containing or not containing human recombinant BMP4 (manufactured by R&D) to adjust the final concentration of exogenous human recombinant BMP4 to 1.5 nM (55 ng/ml, FIG. 1D) or to give a medium free of exogenous human recombinant BMP4 (FIG. 1C). As the half-medium exchange operation, a half volume of the medium in the culture vessel, namely 75 μl, was discarded, the above fresh serum-free medium (75 μl) was added to adjust the total medium amount to 150 μl. Thereafter, a half amount of the medium was changed with the above serum-free medium free of Y27632, SAG and human recombinant BMP4 once per 2-4 days. […]\nThe thus-prepared subconfluent human iPS cells were treated with the cell dispersion solution by using TrypLE Select (Life Technologies), further dispersed into single cells by pipetting operation, and the above human iPS cells dispersed into single cells were suspended in 100 μl of a serum-free medium at 1.2×10^4 cells per well of a non-cell-adhesive 96-well culture plate (PrimeSurface 96V-bottom plate, manufactured by SUMITOMO BAKELITE). Thereafter, the cells were subjected to suspension culturing at 37° C., 5% CO2. […]"}, "[2]": {"tested_on": "human iPS cells (DSPC-3 strain)", "assay": "Immunostaining of aggregate frozen sections for retinal tissue markers Chx10 and Rx", "type": "cell-based", "conditions": "Example 8; SAG 300 nM day 0; BMP4 1.5 nM day 3; day 22", "description": "Cell aggregates on day 22 after the start of suspension culturing were fixed with 4% para-formaldehyde to produce frozen sections. These frozen sections were immunostained for Chx10 (anti-Chx10 antibody, Exalpha, sheep), which is one of the retinal tissue markers, or Rx (anti-Rx antibody, manufactured by Takara, guinea pig), which is one of the retinal tissue markers."}, "[3]": {"conditions": "Example 2 Condition 3, Essential 8, SAG 300 nM day 0, no BMP4, day 18"}},
  "data": [
    {"smiles": "CNC1CCC(N(Cc2cccc(-c3ccncc3)c2)C(=O)c2sc3ccccc3c2Cl)CC1", "note": "(stereo not shown) [SAG]", "values": [
      {"measurement": "aggregate shape and neuroepithelial structure (bright field)", "setting": "[1]; Example 1, StemFit, SAG 300 nM day 0, BMP4 1.5 nM day 6, day 19", "result": "cell aggregates were maintained, and neuroepithelial structure was observed"},
      {"measurement": "aggregate shape and neuroepithelial structure (bright field)", "setting": "[1]; Example 1, StemFit, SAG 300 nM day 0, no BMP4, day 19", "result": "cell aggregates were maintained, and neuroepithelial structure was observed"},
      {"measurement": "aggregate shape and neuroepithelial structure (bright field)", "setting": "[1]; [3]", "result": "cell aggregates were maintained, and neuroepithelial structure was efficiently formed"},
      {"measurement": "proportion of bad form aggregates (collapsed, free of neuroepithelium)", "setting": "[1]; [3]", "result": 6, "unit": "%"},
      {"measurement": "proportion of good form aggregates (containing many neuroepithelia)", "setting": "[1]; [3]", "result": 93, "unit": "%"},
      {"measurement": "aggregate shape and neuroepithelial structure (bright field)", "setting": "[1]; Example 2 Condition 4, Essential 8, SAG 300 nM day 0, BMP4 1.5 nM day 6, day 18", "result": "cell aggregates were maintained, and neuroepithelial structure was efficiently formed"},
      {"measurement": "aggregate shape and neural tissue formation (microscope)", "setting": "[1]; Example 4 Condition 1, StemFit, SAG 300 nM day 0, BMP4 1.5 nM day 3, day 18", "result": "cell aggregates were maintained, and a neural tissue was formed"},
      {"measurement": "aggregate shape and neural tissue formation (microscope)", "setting": "[1]; Example 4 Condition 2, StemFit, SAG 300 nM day 0, BMP4 1.5 nM day 6, day 18", "result": "cell aggregates were maintained, and a neural tissue was formed"},
      {"measurement": "aggregate shape and neural tissue formation (microscope)", "setting": "[1]; Example 5 Condition 1, StemFit, SAG 600 nM day 0, BMP4 1.5 nM day 3, day 18", "result": "cell aggregates were maintained, and a neural tissue was formed"},
      {"measurement": "aggregate shape and neural tissue formation (microscope)", "setting": "[1]; Example 5 Condition 2, StemFit, SAG 600 nM day 0, BMP4 1.5 nM day 6, day 18", "result": "cell aggregates were maintained, and a neural tissue was formed"},
      {"measurement": "aggregate growth and neuroepithelium formation (bright field)", "setting": "[1]; Example 7, StemFit, SAG 30 nM, PMA 0.2 μM or human recombinant Shh 300 ng/ml day 0, BMP4 1.5 nM day 3, day 18", "result": "cell aggregates grew and neuroepithelium was formed"},
      {"measurement": "proportion of Chx10-positive cells in the total cells", "setting": "[2]", "result": "about 10%"},
      {"measurement": "proportion of Rx-positive cells in the total cells", "setting": "[2]", "result": "about 10%"}
    ]}
  ]
}
